According to patent US8252775B2, “Method of treating multiple sclerosis with phosphocholine containing lipids” (priority 2005, dated 2012):
Several values for one entry are separate records, joined by “and”; a condition that tells them apart may be missing. Identical values can stand only once. Entries after “also recorded” stand apart in the source; their conditions may differ.

What was measured:
[1] = system: CD69 expression on CD4+ T cells; test: Flow cytometry of CD69 on restimulated lymph node cells from lipid-treated EAE mice; type: in vivo; settings: for expression of early activation marker CD69 on CD4+ T cells: cells from treated EAE mice restimulated with PLP139-151, vs vehicle; for CD4+CD69+ cells / CD4+CD69− cells: lymph node cells of treated EAE mice, 4 days culture with 10 μg/ml PLP139-151; for CD4+CD69+ cells: vehicle 14.2%; for CD4+CD69− cells: vehicle 39.6%
Experimental: (§1) FIG. 5a-5b. PGPC treatment lowers IFNgamma secretion and early activation marker expression in response to the encephalitogenic antigen. (a) CD69 expression on CD4^+ and CD8^+PI^− lymphocytes (live cells) after 4 days in culture with 10 μg/ml PLP139-151. The ratio of CD69^+CD4^+:CD69^−CD4^+ is 14.2%:39.6% for lymph node cells from vehicle-treated mice, 9.6%:43.8% for cells from sphingomyelin-treated mice, and 7.96%:55.2% for cells from PGPC-treated mice. […] (b) Proliferation and cytokine assays of lymph node cells and splenocytes isolated from vehicle, PGPC, and sphingomyelin-treated mice in FIG. 4c.
(§2) Mice were sacrificed 48 days after disease induction and their spleens and lymph nodes (LN) harvested for analyses of expression of activation markers on subsets of T cells, measurements of secreted cytokines, and levels of T cell proliferation. Isolated cells were restimulated with the encephalitogenic antigen PLP139-151 and analyzed by flow cytometry. Dead cells (identified based on staining with propidium iodide) were eliminated from the analyses, and cells double stained with CD4-FITC or CD8-FITC and CD69-PE are presented (FIG. 5a). […] Specifically, the cells isolated from vehicle treated mice were 39.6% CD4^+CD69^− and 14.2% CD4^+CD69^+, whereas cells from PGPC treated mice were 55.2% CD4^+CD69^− and 7.96% CD4^+CD69^+.
Flow cytometric analysis. Cells were stained and run on a FACScan flow cytometer (BD Biosciences) using CellQuest software (BD Immunocytometry Systems). Results were analyzed using FlowJo software version 6.3.2 (Tree Star, Inc.). The following antibody conjugates were used: PE anti-mouse CD3, clone 145-2C11; FITC anti-mouse CD4, clone GK1.5; PE anti-mouse CD4, clone GK1.5; FITC anti-mouse CD8, clone 53-6.7; PE-anti-mouse CD69, clone H1.2F3. All anti-CD3, CD4, and CD8 antibodies were purchased from BD Pharmingen. Anti-mouse CD69 was purchased from eBioscience. 7AAD staining was performed using the reagents from the Annexin V-PE Apoptosis Detection Kit I (BD Pharmingen) using the manufacturer's recommended staining protocol. CFSE staining was performed on freshly isolated lymph node cells by mixing equal volumes of 37° C. pre-warmed cells in PBS containing 5% FBS with 10 μM solution of pre-warmed CFSE probe (CellTrace™ CFSE Cell Proliferation Kit) as described in the manufacturer's alternate method for labelling cells in solution (Molecular Probes).

EAE [2] = test: Treatment of established EAE with intravenous lipid; type: in vivo, mice; settings: 100 μg lipid i.v. at onset of paralysis and days 3, 6, 12, 18; five injections; vs vehicle
TCR Tg LN cells [3] = test: 7AAD uptake (cell death) in MBPAc1-11-stimulated TCR Tg cells; type: cell-based; settings: 75 μM lipid, 5 μg/ml MBPAc1-11, 48 hours
Experimental: (§3) FIG. 6a-6d. PGPC slows the rate of T cell proliferation. […] The 0 hour time point is shown as the high peak with the black dashed line. (c) 7AAD stained cells from TCR Tg mice^33, 48 hours after incubation with 5 μg/ml MBPAc1-11 with or without lipid. […] (d) LN cells stimulated with 1 μg/ml MBPAC1-11, 30 μg/ml PGPC, with or without 50 U/ml IL-2 are depicted.
(§4) To determine if the PGPC-mediated reduction in the proliferation rate of MBPAC1-11 stimulated T cells was due to cell death, we examined 7AAD uptake to identify dead cells at the 48 hour time point (FIG. 6c). […] This effect could be reversed by the addition of 50 U/ml IL-2 (p=0.024, Student's t test) (FIG. 6d), consistent with IL-2 mediated rescue of the T cells from an anergic state.
Flow cytometric analysis. Cells were stained and run on a FACScan flow cytometer (BD Biosciences) using CellQuest software (BD Immunocytometry Systems). Results were analyzed using FlowJo software version 6.3.2 (Tree Star, Inc.). The following antibody conjugates were used: PE anti-mouse CD3, clone 145-2C11; FITC anti-mouse CD4, clone GK1.5; PE anti-mouse CD4, clone GK1.5; FITC anti-mouse CD8, clone 53-6.7; PE-anti-mouse CD69, clone H1.2F3. All anti-CD3, CD4, and CD8 antibodies were purchased from BD Pharmingen. Anti-mouse CD69 was purchased from eBioscience. […]

IFNγ [4] = test: IFNγ ELISA on PLP139-151-stimulated cells from lipid-treated EAE mice; type: in vivo; settings: vs controls; for IFNγ secretion by lymph node cells: LN cells from treated EAE mice stimulated with PLP139-151
Experimental: as §1, §2
(§5) Proliferation and cytokine assays. We sacrificed mice and harvested their lymph node cells and splenocytes. 2.5×10^6 cells/ml were stimulated in vitro with 10 μg/ml PLP139-151, 1 μg/ml ConA, or media alone. Cells were cultured in RPMI 1640 with 10% fetal bovine serum, supplemented with L-glutamine (2 mM), sodium pyruvate (1 mM), non-essential amino acids (0.1 mM), penicillin (100 U/ml), streptomycin (0.1 mg/ml), and 2-mercaptoethanol (50 μM). To assess proliferation, 1 μCi of ^3H-thymidine was added to each well at 48 hours for the final 18 hours of culture, and radioactivity incorporation quantified using a Betaplate scintillation counter. Cytokine assays were performed on culture supernatants after 66 hours of culture using the BD OptEIA™ Mouse IFNγ ELISA kit (BD Biosciences). Results are shown as mean of triplicates+s.e.m.

TCR Tg LN cells [5] = test: CFSE T cell proliferation assay, MBPAc1-11-stimulated TCR Tg LN cells; type: cell-based, mice; settings: 75 μM lipid, 5 μg/ml MBPAc1-11, 48 hours, CD3+ and CD4+ cells; vs media alone
[6] = system: MBPAc1-11-specific T cells; test: 3H-thymidine proliferation of MBPAc1-11-stimulated LN cells with lipid in vitro; type: cell-based, mice
Experimental: as §3, §4
as §5, with “Cytokine assays were performed on culture supernatants after 66 hours of culture using the BD OptEIA™ Mouse IFNγ ELISA kit (BD Biosciences). Results are shown as mean of triplicates+s.e.m.” left out

splenocytes = test: 3H-thymidine proliferation of PLP139-151-stimulated splenocytes from lipid-treated EAE mice; type: in vivo; settings: PLP139-151-stimulated splenocytes from treated EAE mice
Experimental: as §1
Mice were sacrificed 48 days after disease induction and their spleens and lymph nodes (LN) harvested for analyses of expression of activation markers on subsets of T cells, measurements of secreted cytokines, and levels of T cell proliferation. Isolated cells were restimulated with the encephalitogenic antigen PLP139-151 and analyzed by flow cytometry. Dead cells (identified based on staining with propidium iodide) were eliminated from the analyses, and cells double stained with CD4-FITC or CD8-FITC and CD69-PE are presented (FIG. 5a). […]
(§6) Proliferation and cytokine assays. […] To assess proliferation, 1 μCi of ^3H-thymidine was added to each well at 48 hours for the final 18 hours of culture, and radioactivity incorporation quantified using a Betaplate scintillation counter. […]

EAE [7] = test: Prevention of EAE by co-delivery of lipid with PLP139-151/CFA; type: in vivo; settings: SJL/J mice; 6 μg lipid with 100 μg PLP139-151 in CFA s.c. day 0, 6 μg i.p. days 4 and 7; vs vehicle
IL-12 = IL-12 production by lymphocytes from sulfatide-treated mice; type: in vivo; settings: lymphocytes from sulfatide-treated mice (sulfatide+PLP139-151)
Experimental: (§7) FIG. 9. […] (a) Co-immunization of SJL mice with sulfatide (6 μg/mouse) and PLP139-151 (100 μg/mouse) emulsified in CFA (▪ sulfatide n=10, ▪ vehicle control n=10). An additional immunization of sulfatide (6 μg/mouse) or vehicle was given i.p. on d4 and d7 post-immunization. Each point represents the mean+s.e.m. (*p<0.05; Student's t test). […] The heatmap and dendrograms represent the SAM and hierarchical cluster analysis of lipid array results. (c) Modulation of EAE disease course after i.v. injection of O4 anti-sulfatide antibody versus IgM isotype control (▪ O4 n=5, ▪ IgM control n=5). Antibody was given on days 14, 17, and 19 post-immunization.

anti-lipid antibodies = test: Lipid array analysis of serum from mice co-immunized with PLP139-151 plus sulfatide; type: in vivo; settings: SJL mice co-immunized with PLP139-151 plus sulfatide
Experimental: as §7
Probing lipid arrays. Arrays were blocked overnight in 4° C. with 1% fatty acid free bovine serum albumin (BSA; Sigma) in phosphate buffered saline (PBS; Gibco BRL). Arrays were then probed with 1/10 dilutions of CSF, or 1/200 dilutions of sera for 2 hours at 4° C. After washing with blocking solution, a secondary antibody (anti-human IgG+IgM, Jackson Immunoresearch; anti-human IgG, Jackson Immunoresearch; anti-rabbit IgG, Amersham; or anti-mouse IgG, Amersham) conjugated to horseradish peroxidase (HRP) was added in blocking solution, and bound secondary antibodies visualized using chemiluminescence (ECL Plus, Amersham) and autoradiography. […]

TNFα = TNFα production by PLP139-151-specific T cells from sulfatide co-immunized mice; type: in vivo; settings: T cells from mice immunized with PLP139-151+sulfatide
IFNγ [8] = test: IFNγ production by PLP139-151-specific T cells from sulfatide co-immunized mice; type: in vivo; settings: T cells from mice immunized with PLP139-151+sulfatide
Experimental: as §7
(§8) Further, the exacerbation of mouse EAE was associated with increased lymphocyte production of pro-inflammatory cytokines. Thus, characterization of the effects of candidate lipids in the mouse EAE model for MS (EAE), both with regard to their effects on disease severity as well as the production of pro-inflammatory cytokines by autoreactive lymphocytes can be used to identify lipids likely to exacerbated MS.
as §6, with “assays. We sacrificed mice and harvested their lymph node cells and splenocytes.” for “assays.”

IL-4 = IL-4 production by PLP139-151-specific T cells from sulfatide co-immunized mice; type: in vivo; settings: T cells from mice immunized with PLP139-151+sulfatide
Experimental: as §7, §8

EAE [9] = test: Co-immunization with sulfatide plus PLP139-151, EAE disease course; type: in vivo; settings: SJL mice; sulfatide 6 μg/mouse with PLP139-151 in CFA day 0, i.p. d4 and d7; vs vehicle
Experimental: as §7, §8
EAE induction and lipid co-immunization. […] Clinical disease was monitored daily using the following scoring system: 0, no disease; 1, limp tail; 2, hindlimb weakness; 3, hindlimb paralysis; 4, hindlimb and forelimb paralysis; 5, death. […]

Molecule | expression of early activation marker CD69 on CD4+ T cells [1] | CD4+CD69+ cells [1] | CD4+CD69− cells [1] | severity of paralysis in established EAE (EAE [2]) | cell death by 7AAD uptake (TCR Tg LN cells [3]) | IFNγ secretion by lymph node cells (IFNγ [4]) | IFNγ secretion by lymph node cells (IFNγ [4]; listed as PCPG) | IFNγ secretion by splenocytes (IFNγ [4]; splenocytes from treated EAE mice stimulated with PLP139-151) | T cell proliferation by CFSE staining (TCR Tg LN cells [5]) | effect of IL-2 on PGPC-mediated reduction of proliferation ([6]; 1 μg/ml MBPAc1-11, 30 μg/ml PGPC plus 50 U/ml IL-2) | MBPAc1-11-specific T cell proliferation (3H-thymidine incorporation) ([6]; LN cells, 1 μg/ml MBPAc1-11, 30 μg/ml PGPC) | 3H-thymidine incorporation (proliferation) of splenocytes (splenocytes) | severity of EAE (prevention) (EAE [7]) | IL-12 production (IL-12) | anti-lipid antibody reactivities in serum (anti-lipid antibodies) | TNFα production in response to PLP139-151 (TNFα) | IFNγ production in response to PLP139-151 (IFNγ [8]) | IL-4 production in response to PLP139-151 (IL-4) | EAE disease course after co-immunization (EAE [9])
CCCCCCCCCCCCCCCC(=O)OC[C@H](COP(=O)([O-])OCC[N+](C)(C)C)OC(=O)CCCC(=O)O [PGPC, 1-palmitoyl-2-glutaroyl-sn-glycero-3-phosphocholine] | marked reduction in the expression of the early activation marker CD69 | 7.96% | 55.2% | reduced the severity of paralysis; also recorded: treats ongoing disease | not due to cell death; also recorded: not inducing cell death | secreted less IFNgamma; also recorded: secreted lower levels of IFNγ | decreased IFNγ levels | secreted less IFNgamma; also recorded: secreted lower levels of IFNγ | slowed T cell proliferation; also recorded: reduces T cell proliferation rates; also recorded: reduced cell divisions | IL-2 reversed this effect | statistically significant reductions in MBPAc1-11-specific T cell proliferation; also recorded: reduced cell proliferation | reduced; also recorded: slightly lower proliferation | statistically reduced the severity of EAE; also recorded: ameliorates EAE |  |  |  |  |  | 
sphingomyelin | intermediate level of CD69 expression | 9.61% and 9.6% | 43.8% | only PGPC treats ongoing disease |  | decreased IFNγ levels |  |  | mirrored that of the control; also recorded: line parallels gray shaded area |  |  |  | statistically reduced the severity of EAE; also recorded: ameliorates EAE |  |  |  |  |  | 
sulfatide |  |  |  |  |  |  |  |  |  |  |  |  |  | increased levels | increased anti-sulfatide and other anti-lipid antibody reactivities; also recorded: increased anti-lipid antibodies | increased amounts | increased amounts; also recorded: increased levels | less and lower levels | exacerbated murine MS; also recorded: more severe EAE disease course
